Source: US8106096B2, “Compositions and methods for treatment of optic nerve diseases” (University of Maryland, Baltimore, priority 2008, dated 2012)
Entries after “also recorded” stand apart in the source; their conditions may differ.

Experiments:
[1] = system: retinal ganglion cells (RGC); test: Stereological analysis of RGC numbers after rAION (ON stroke); format: in vivo, rat
Procedure: Stereological analysis of RGC numbers in naïve and rAION induced rat retinae treated with either PGJ2 or Vehicle (PBS). Animals were injected IV 1Xd for 3 days with either 100 mg/kg PGJ2 or PBS-vehicle. Animals were euthanized and retinae analyzed 30 days post-rAION induction. Average numbers based on 4 retinae/group; RGC stereology derived from Brn3a (+) RGC immunostaining.
Statistical analysis of 15-deoxy delta (12,14) PGJ2 administration to rats after optic nerve (ON) stroke. […] The ordinate represents the number of retinal ganglion cells in each retina. The abscissa represents the number of fields of cells counted to reach a statistically valid number as determined by the field of stereology. The green line represents the typical number of retinal ganglion cells in the untreated (naïve; no stroke) rat retina. The response of rat retina and optic nerve to vehicle treatment is shown in yellow. The response of PGJ2 treated animals is shown in Blue.
rAION-associated cell loss is analyzed using stereological analysis.
Rats were used for this experiment and ON stroke was administered to a 75% predicted loss of RGCs by the method of Bernstein et al., 2003, supra. RGC's were counted in each retina in the untreated (naïve; no stroke) and rats with rAION treated with PGJ2.

optic nerve (ON) edema = test: ON edema after rAION by direct fundus observation in the living animal; format: in vivo, rat; details: post-infarct administration (systemic and intravitreal), first 3 days post-induction; 1-3 days following rAION
Excerpt: PGJ2-treated animals have 72.4% of the number of naïve RGCs compared with 34.3 for vehicle treated animals (black bar, FIG. 2).

[2] = system: ED-1(+) extrinsic macrophages; test: Extrinsic macrophage (ED-1(+)) recruitment into ON after rAION induction; format: in vivo, rodent
Excerpt: The present inventor has evaluated the location of early ON-macrophage activity following rAION induction, using antibodies for both general cellular inflammation (IBA-1) and extrinsic macrophages (detected by antibody to ED-1). […] Few, if any extrinsic macrophages are present in normal uninfarcted ON (results not shown). Following rAION induction, ED-1(+) extrinsic macrophages enter the ON and cluster in the primary ischemic lesion site immediately behind the retina/ON junction. Little extrinsic macrophage infiltration occurs >250 microns post-ON/retina junction. […] Control (vehicle treated animals) show a similar pattern (data not shown). […] Extrinsic macrophages extend beyond the initial lesion site, even during early axonal degeneration occurring 6 days post-induction. Thus, it is possible to administer intraventricular GM-CSF to recruit extrinsic macrophages into the ON following rAION, and determine whether the macrophage recruitment approach is useful to enhancing ON-axonal repair and regeneration following ON infarct.

| Compound | RGC survival ([1]; 30 days post-rAION induction) | number of RGCs relative to naïve RGCs ([1]; rat rAION, IV 1Xd for 3 days, 100 mg/kg, 30 days post-rAION induction, Brn3a(+) RGC stereology) | preservation of the neurons whose axons comprise the optic nerve ([1]; rats, ON stroke to a 75% predicted loss of RGCs, PGJ2 treatment after stroke) | ON edema (optic nerve (ON) edema) | numbers of ED-1(+) cells in ON ([2]; 1 ug stereotactically injected into the superior colliculus, 6 days post-induction, vehicle controls show a similar pattern) | recruitment of ED-1(+) cells in rAION-induced ONs ([2]; intraventricular injection, data not shown) | ability to recruit extrinsic macrophages ([2]; rAION, IBA-1 and ED-1 antibodies, data not shown) |
| --- | --- | --- | --- | --- | --- | --- | --- |
| CCCCC/C=C/C=C1/C(=O)C=C[C@@H]1C/C=C\CCCC(=O)O [PGJ2, 15 deoxy delta 12,14 prostaglandin J2] | increased RGC survival | 72.4% | 35-50% | reduced gross ON edema; also recorded: reduces ON edema | – | – | – |
| GM-CSF: Granulocyte-Macrophage Colony Stimulating Factor; directly activates macrophages and recruits extrinsic macrophages | – | – | – | – | decreased numbers of ED-1(+) cells | significantly enhanced recruitment of ED-1(+) cells | has the ability to recruit extrinsic macrophages |
